# Experimental data taken from patent US10526327B2, “Histone demethylase inhibitors” (CELGENE QUANTICEL RESEARCH, INC., priority 2013, dated 2020).
# Legend:
# JMJD2C = molecular target: T1, JMJD2C (Homo sapiens, UniProt Q9H3R0); assay: JMJD2C in vitro enzyme inhibition assay (TR-FRET); format: biochemical
# T1 construct: purchased BPS Bioscience 50105
# T1 sequence (Q9H3R0 2-372): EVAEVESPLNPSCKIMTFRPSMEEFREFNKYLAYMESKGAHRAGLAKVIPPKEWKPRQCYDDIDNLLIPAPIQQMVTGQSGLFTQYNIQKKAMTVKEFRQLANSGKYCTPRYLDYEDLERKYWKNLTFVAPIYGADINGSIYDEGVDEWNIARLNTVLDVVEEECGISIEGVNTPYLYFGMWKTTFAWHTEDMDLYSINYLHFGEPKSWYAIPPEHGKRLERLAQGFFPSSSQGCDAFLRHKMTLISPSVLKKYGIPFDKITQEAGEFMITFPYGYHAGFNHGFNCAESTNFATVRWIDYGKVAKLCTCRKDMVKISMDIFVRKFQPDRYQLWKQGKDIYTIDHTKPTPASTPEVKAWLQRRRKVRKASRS
# Description: (§1) This assay determines the ability of a test compound to inhibit Jarid1A, Jarid1B, and JMJD2C demethylase activity. Baculovirus expressed Jarid1A (GenBank Accession #NM_001042603, AA1-1090) was purchased from BPS Bioscience (Cat#50110). Baculovirus expressed Jarid1B (GenBank Accession #NM_006618, AA 2-751) was purchased from BPS Bioscience (Cat #50121) or custom made by MolecularThroughput. Baculovirus expressed JMJD2C (GenBank Accession #BC143571, AA 2-372) was purchased from BPS Bioscience (Cat#50105).
# The ability of test compounds to inhibit the activity of JMJD2C was determined in 384-well plate format under the following reaction conditions: 0.3 nM JMJD2C, 300 nM H3K9me3-biotin labeled peptide (Anaspec cat #64360), 2 μM alpha-ketoglutaric acid in assay buffer of 50 mM HEPES, pH7.3, 0.005% Brij35, 0.5 mM TCEP, 0.2 mg/ml BSA, 50 μM sodium L-ascorbate, and 2 μM ammonium iron(II) sulfate. Reaction product was determined quantitatively by TR-FRET after the addition of detection reagent Phycolink Streptavidin-allophycocyanin (Prozyme) and Europium-anti-di-methylated histone H3 lysine 9 (H3K9me2) antibody (PerkinElmer) in the presence of 5 mM EDTA in LANCE detection buffer (PerkinElmer) at a final concentration of 50 nM and 1 nM, respectively.
# (§2) The assay reaction was initiated by the following: 2 μl of the mixture of 900 nM H3K9me3-biotin labeled peptide and 6 μM alpha-ketoglutaric acid with 2 μl of 11-point serial diluted inhibitor in 3% DMSO were added to each well of the plate, followed by the addition of 2 μl of 0.9 nM JMJD2C to initiate the reaction. The reaction mixture was incubated at room temperature for 30 minutes, and terminated by the addition of 6 μl of 5 mM EDTA in LANCE detection buffer containing 100 nM Phycolink Streptavidin-allophycocyanin and 2 nM Europium-anti-H3K9me2 antibody. Plates were read by EnVisionMultilabel Reader in TR-FRET mode (excitation at 320 nm, emission at 615 nm and 665 nm) after 1 hour incubation at room temperature. A ratio was calculated (665/615) for each well and fitted to determine inhibition constant (IC50).
# Jarid1B = molecular target: T2, Jarid1B (Homo sapiens, UniProt Q9UGL1); assay: Jarid1B in vitro enzyme inhibition assay (TR-FRET); format: biochemical
# T2 construct: purchased BPS Bioscience or custom made by MolecularThroughput 50121
# T2 sequence (Q9UGL1 2-751): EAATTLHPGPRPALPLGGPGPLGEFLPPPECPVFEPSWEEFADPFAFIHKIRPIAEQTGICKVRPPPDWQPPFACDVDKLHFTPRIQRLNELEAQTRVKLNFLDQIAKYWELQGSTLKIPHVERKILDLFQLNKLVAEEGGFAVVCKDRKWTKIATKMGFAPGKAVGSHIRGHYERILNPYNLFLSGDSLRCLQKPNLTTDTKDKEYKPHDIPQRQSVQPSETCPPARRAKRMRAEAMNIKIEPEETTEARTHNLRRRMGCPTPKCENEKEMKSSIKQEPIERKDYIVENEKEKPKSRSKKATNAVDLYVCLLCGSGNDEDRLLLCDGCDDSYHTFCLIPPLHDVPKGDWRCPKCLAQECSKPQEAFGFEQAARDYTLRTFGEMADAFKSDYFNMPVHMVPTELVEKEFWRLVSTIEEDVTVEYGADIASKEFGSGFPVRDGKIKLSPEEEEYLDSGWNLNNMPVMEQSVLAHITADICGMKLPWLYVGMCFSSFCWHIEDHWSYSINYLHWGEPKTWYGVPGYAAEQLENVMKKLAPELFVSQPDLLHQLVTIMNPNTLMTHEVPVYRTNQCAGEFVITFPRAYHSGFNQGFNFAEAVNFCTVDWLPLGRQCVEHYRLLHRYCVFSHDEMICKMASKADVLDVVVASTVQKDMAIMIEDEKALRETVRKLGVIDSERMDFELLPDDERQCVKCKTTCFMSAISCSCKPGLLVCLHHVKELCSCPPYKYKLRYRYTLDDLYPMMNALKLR
# Description: as §1
# The ability of test compounds to inhibit the activity of Jarid1B was determined in 384-well plate format under the following reaction conditions: 0.8 nM Jarid1B, 300 nM H3K4me3-biotin labeled peptide (Anaspec cat #64357), 2 μM alpha-ketoglutaric acid in assay buffer of 50 mM HEPES, pH7.3, 0.005% Brij35, 0.5 mM TCEP, 0.2 mg/ml BSA, 50 μM sodium L-ascorbate, and 2 μM ammonium iron(II) sulfate. Reaction product was determined quantitatively by TR-FRET after the addition of detection reagent Phycolink Streptavidin-allophycocyanin (Prozyme) and Europium-anti-mono-or di-methylated histone H3 lysine 4 (H3K4me1-2) antibody (PerkinElmer) in the presence of 5 mM EDTA in LANCE detection buffer (PerkinElmer) at a final concentration of 25 nM and 1 nM, respectively.
# as §2, with “nM H3K4me3-biotin” for “nM H3K9me3-biotin”, “DMSO was” for “DMSO were”, “of 2.4” for “of 0.9”, “nM Jarid1B” for “nM JMJD2C”, “containing 50” for “containing 100”, “nM Europium-anti-H3K4me1-2” for “nM Europium-anti-H3K9me2”
SMILES,IC50 (JMJD2C) [nM],IC50 (Jarid1B) [nM]
"CC(C)(C)OC(=O)Nc1cccc(Oc2nc(O)c3ccncc3n2)c1 [Example 36, tert-butyl N-[3-(4-hydroxypyrido[3,4-d]pyrimidin-2-yl)oxyphenyl]carbamate]",100 to 1000,≤ 100
"COCCCn1cc(Oc2nc(O)c3ccncc3n2)cn1 [Example 65, 2-{[1-(3-methoxypropyl)-1H-pyrazol-4-yl]oxy}pyrido[3,4-d]pyrimidin-4-ol]",100 to 1000,≤ 100
"Cn1cnc(-c2nccc3c(O)nc(OCc4cccc(F)c4)nc23)c1 [Example 104, 2-[(3-fluorophenyl)methoxy]-8-(1-methyl-1H-imidazol-4-yl)pyrido[3,4-d]pyrimidin-4-ol]",≤ 100,≤ 100
"CC(=O)Nc1ccc(Oc2nc(O)c3ccncc3n2)cc1 [Example 35, N-[4-(4-hydroxypyrido[3,4-d]pyrimidin-2-yl)oxyphenyl]acetamide]",100 to 1000,≤ 100
"CN(C)CCOc1nc(O)c2ccnc(-c3cn(C)cn3)c2n1 [Example 76, 2-[2-(dimethylamino)ethoxy]-8-(1-methylimidazol-4-yl)pyrido[3,4-d]pyrimidin-4-ol]",100 to 1000,100 to 1000
"Oc1nc(Oc2cccc(Cl)c2)nc2cnccc12 [Example 41, 2-(3-chlorophenoxy)pyrido[3,4-d]pyrimidin-4-ol]",100 to 1000,≤ 100
"Oc1nc(Oc2ccc(F)c(F)c2)nc2cnccc12 [Example 37, 2-(3,4-difluorophenoxy)pyrido[3,4-d]pyrimidin-4-ol]",≤ 100,≤ 100
"Cc1nn(C)c2cc(Oc3nc(O)c4ccnc(-c5cn(C)cn5)c4n3)ccc12 [Example 85, 2-(1,3-dimethylindazol-6-yl)oxy-8-(1-methylimidazol-4-yl)pyrido[3,4-d]pyrimidin-4-ol]",100 to 1000,≤ 100
"Cn1cnc(-c2nccc3c(O)nc(Oc4cnn(Cc5ccccc5)c4)nc23)c1 [Example 79, 2-(1-benzylpyrazol-4-yl)oxy-8-(1-methylimidazol-4-yl)pyrido[3,4-d]pyrimidin-4-ol]",100 to 1000,≤ 100
"CC(C)CCn1cc(Oc2nc(O)c3ccncc3n2)cn1 [Example 55, 2-{[1-(3-methylbutyl)pyrazol-4-yl]oxy}pyrido[3,4-d]pyrimidin-4-ol]",≤ 100,≤ 100
"Cn1cnc(-c2nccc3c(O)nc(OCc4ccccc4Cl)nc23)c1 [Example 105, 2-[(2-chlorophenyl)methoxy]-8-(1-methyl-1H-imidazol-4-yl)pyrido[3,4-d]pyrimidin-4-ol]",≤ 100,≤ 100
"Cn1cnc(-c2nccc3c(O)nc(OCC(F)(F)F)nc23)c1 [Example 70, 8-(1-methyl-1H-imidazol-4-yl)-2-(2,2,2-trifluoroethoxy)pyrido[3,4-d]pyrimidin-4-ol]",100 to 1000,≤ 100
"Cn1cnc(-c2nccc3c(O)nc(OCC4CCOC4)nc23)c1 (stereo not drawn) [Example 103, 8-(1-methyl-1H-imidazol-4-yl)-2-(oxolan-3-ylmethoxy)pyrido[3,4-d]pyrimidin-4-ol]",≤ 100,≤ 100
"Cn1cnc(-c2nccc3c(O)nc(Oc4ccc(F)c(F)c4)nc23)c1 [Example 81, 2-(3,4-difluorophenoxy)-8-(1-methylimidazol-4-yl)pyrido[3,4-d]pyrimidin-4-ol]",100 to 1000,≤ 100
"COCCn1ncc2ccc(Oc3nc(O)c4ccncc4n3)cc21 [Example 61, 2-{[1-(2-methoxyethyl)-1H-indazol-6-yl]oxy}pyrido[3,4-d]pyrimidin-4-ol]",100 to 1000,≤ 100
"O=S(=O)(C1CC1)N1CCC(n2cc(Oc3nc(O)c4ccncc4n3)cn2)CC1 [Example 94, 2-[1-(1-cyclopropylsulfonylpiperidin-4-yl)pyrazol-4-yl]oxypyrido[3,4-d]pyrimidin-4-ol]",≤ 100,≤ 100
"Cn1cnc(-c2nccc3c(O)nc(OCc4cccc(Cl)c4Cl)nc23)c1 [Example 106, 2-[(2,3-dichlorophenyl)methoxy]-8-(1-methyl-1H-imidazol-4-yl)pyrido[3,4-d]pyrimidin-4-ol]",100 to 1000,≤ 100
"O=C(C1CC1)N1CCC(n2cc(Oc3nc(O)c4ccncc4n3)cn2)CC1 [Example 92, cyclopropyl-[4-[4-(4-hydroxypyrido[3,4-d]pyrimidin-2-yl)oxypyrazol-1-yl]piperidin-1-yl]methanone]",≤ 100,≤ 100
"CN(C)c1cccc(Oc2nc(O)c3ccncc3n2)c1 [Example 50, 2-[3-(dimethylamino)phenoxy]pyrido[3,4-d]pyrimidin-4-ol]",100 to 1000,≤ 100
O=C(c1cc(F)cc(Oc2nc(O)c3ccncc3n2)c1)N1CCOCC1 [Example 60],100 to 1000,≤ 100
"CCCOc1nc(O)c2ccncc2n1 [Example 7, 2-propoxy-3H-pyrido[3,4-d]pyrimidin-4-one]",100 to 1000,100 to 1000
"Oc1nc(Oc2cnn(C3CCCC3)c2)nc2cnccc12 [Example 56, 2-[(1-cyclopentylpyrazol-4-yl)oxy]pyrido[3,4-d]pyrimidin-4-ol]",≤ 100,≤ 100
"Oc1nc(Oc2cnn(Cc3ccccc3F)c2)nc2cnccc12 [Example 87, 2-[1-(2-fluorobenzyl)pyrazol-4-yl]oxypyrido[3,4-d]pyrimidin-4-ol]",≤ 100,≤ 100
"Oc1nc(OCCOc2ccccc2)nc2cnccc12 [Example 10, 2-(2-phenoxyethoxy)-3H-pyrido[3,4-d]pyrimidin-4-one]",100 to 1000,100 to 1000
